Assay results taken from the supplement of paper PMC10331698.
± gives the standard deviation of the averaged measurements.

Columns and labels:
Assay in all cases: level (log10 ratio to DMSO vehicle control); higher = higher biomarker level / cell amount than vehicle control
Conditions in all cases: in DMSO
[1] = compound: NCC(F)(F)C(F)(F)C(F)(F)C(F)(F)C(F)(F)C(F)(F)C(F)(F)F [1H,1H-Perfluorooctylamine]
Experimental: (§1)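 BioMAP Diversity Plus panel of 12 human primary cell co-culture systems (3C, 4H, LPS, SAg, BT, BF4T, BE3C, CASM3C, HDF3CGF, KF3CT, MyoF, Mphg). Compounds were added 1 h before stimulation and left for 24 h (MyoF 48 h; BT 72 h for soluble read-outs or 6 d for IgG). Biomarkers were read by ELISA, cytotoxicity by SRB, PBMC viability and proliferation by Alamar Blue. Each well value was divided by the mean of 8 DMSO control wells on the same plate and log10 transformed; duplicate blinded samples were tested at 4 concentrations.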

[2] = compound: OCC(F)(F)OC(F)(F)C(F)(F)OC(F)(F)CO [1H,1H,8H,8H-Perfluoro-3,6-dioxaoctane-1,8-diol]
Experimental: as §1

Perfluorobutanoic acid = compound: O=C(O)C(F)(F)C(F)(F)C(F)(F)F [Perfluorobutanoic acid]
Experimental: as §1

[3] = compound: C=CC(F)(F)C(F)(F)C(F)(F)C(F)(F)C(F)(F)C(F)(F)C(F)(F)C(F)(F)C=C [1,8-Divinylperfluorooctane]
Experimental: as §1

[4] = compound: CCN(CCO)S(=O)(=O)C(F)(F)C(F)(F)C(F)(F)C(F)(F)C(F)(F)C(F)(F)C(F)(F)C(F)(F)F [N-Ethyl-N-(2-hydroxyethyl)perfluorooctanesulfonamide]
Experimental: as §1

[5] = compound: O=C(O)C(F)(F)OC(F)(F)C(F)(F)OC(F)(F)C(=O)O [Perfluoro-3,6-dioxaoctane-1,8-dioic acid]
Experimental: as §1

Perfluoropropanoic acid = compound: O=C(O)C(F)(F)C(F)(F)F [Perfluoropropanoic acid]
Experimental: as §1

Row | Test System | level (log10) ([1]; 6700 nM) | level (log10) ([1]; 20000 nM) | level (log10) ([1]; 60000 nM) | level (log10) ([2]; 6700 nM) | level (log10) ([2]; 20000 nM) | level (log10) ([2]; 60000 nM) | level (log10) (Perfluorobutanoic acid; 6700 nM) | level (log10) (Perfluorobutanoic acid; 20000 nM) | level (log10) (Perfluorobutanoic acid; 60000 nM) | level (log10) ([3]; 6700 nM) | level (log10) ([3]; 20000 nM) | level (log10) ([4]; 6700 nM) | level (log10) ([4]; 20000 nM) | level (log10) ([5]; 6700 nM) | level (log10) ([5]; 20000 nM) | level (log10) ([5]; 60000 nM) | level (log10) (Perfluoropropanoic acid; 6700 nM) | level (log10) (Perfluoropropanoic acid; 20000 nM) | level (log10) (Perfluoropropanoic acid; 60000 nM)
1 | HDF3CGF:CD106/VCAM-1 | -0.0015 ± 0.0078 | -0.0445 ± 0.074 | -0.08 ± 0.095 | -0.0145 ± 0.011 | -0.0145 ± 0.026 | 0.0115 ± 0.018 | -0.008 ± 0.0014 | 0.0295 ± 0.026 | -0.0085 ± 0.015 | -0.028 ± 0.021 | -0.016 ± 0.017 | -0.0825 ± 0.046 | -0.173 ± 0.11 | -0.0075 ± 0.00071 | -0.0085 ± 0.016 | -0.0035 ± 0.05 | -0.0555 ± 0.0035 | -0.018 ± 0.0014 | 0.0175 ± 0.052
2 | HDF3CGF:CXCL8/IL-8 | -0.0025 ± 0.005 | -0.018 ± 0.0099 | -0.002 ± 0.0042 | 0.0115 ± 0.023 | 0.009 ± 0.024 | 0.015 ± 0.028 | -0.002 ± 0.0014 | -0.004 ± 0.0085 | 0.0015 ± 0.0021 | -0.0095 ± 0.0021 | -0.002 ± 0.0085 | 0.0345 ± 0.016 | 0.011 ± 0.0071 | -0.0005 ± 0.0021 | 0.0135 ± 0.005 | 0.017 ± 0.0042 | -0.0055 ± 0.0021 | 0.007 ± 0.011 | 0.017 ± 0.0057
3 | HDF3CGF:CXCL9/MIG | -0.006 ± 0.018 | -0.0205 ± 0.011 | -0.0115 ± 0.005 | -0.0035 ± 0.015 | -0.015 ± 0.037 | 0.0345 ± 0.067 | -0.005 ± 0.021 | -0.014 ± 0.0028 | 0.012 ± 0.024 | 0.006 ± 0.0057 | -0.001 ± 0.024 | -0.0065 ± 0.015 | -0.159 ± 0.023 | -0.0185 ± 0.016 | 0.0135 ± 0.0092 | 0.0085 ± 0.005 | -0.019 ± 0.0014 | -0.01 ± 0.014 | -0.0195 ± 0.026
4 | HDF3CGF:CXCL10/IP-10 | 0.0115 ± 0.03 | -0.006 ± 0.011 | -0.0005 ± 0.00071 | 0.004 ± 0.0014 | -0.0085 ± 0.00071 | -0.011 ± 0.021 | -0.002 ± 0.0057 | 0.0035 ± 0.005 | -0.0025 ± 0.013 | 0.0205 ± 0.035 | 0.017 ± 0.035 | -0.0725 ± 0.05 | -0.206 ± 0.0057 | 0.0105 ± 0.023 | -0.004 ± 0.011 | -0.0085 ± 0.023 | -0.005 ± 0.0085 | -0.001 ± 0.0028 | 0.02 ± 0.0071
5 | HDF3CGF:CXCL11/I-TAC | -0.0135 ± 0.035 | -0.021 ± 0.033 | -0.046 ± 0.078 | 0.0085 ± 0.00071 | 0.0055 ± 0.0064 | 0.014 ± 0.031 | 0.005 ± 0.016 | -0.0035 ± 0.011 | 0.001 ± 0.023 | 0.0135 ± 0.013 | 0.016 ± 0.037 | -0.0535 ± 0.046 | -0.172 ± 0.041 | 0.0105 ± 0.011 | 0.0235 ± 0.012 | 0.012 ± 0.0042 | -0.0325 ± 0.032 | -0.018 ± 0.033 | -0.0215 ± 0.057
6 | HDF3CGF:Collagen I | -0.047 | -0.0275 ± 0.0078 | 0.028 ± 0.081 | -0.025 ± 0.018 | -0.023 ± 0.0042 | 0.02 ± 0.092 | -0.022 ± 0.025 | -0.0105 ± 0.023 | 0.0175 ± 0.07 | 0.043 ± 0.054 | 0.0595 ± 0.016 | 0.0835 ± 0.03 | 0.112 ± 0.0092 | -0.011 ± 0.068 | -0.0135 ± 0.053 | 0.0405 ± 0.015 | 0 ± 0.038 | -0.031 ± 0.1 | 0.0375 ± 0.012
7 | HDF3CGF:Collagen III | -0.009 ± 0.021 | -0.0055 ± 0.00071 | -0.0165 ± 0.023 | -0.0035 ± 0.0078 | -0.0105 ± 0.0078 | 0.0165 ± 0.05 | -0.014 ± 0.011 | -0.004 ± 0.016 | 0.0135 ± 0.029 | 0.001 ± 0.024 | -0.0125 ± 0.029 | -0.0465 ± 0.05 | -0.142 ± 0.044 | -0.0115 ± 0.013 | 0.002 ± 0.011 | 0.0535 ± 0.012 | -0.01 ± 0.1 | -0.0045 ± 0.032 | 0.048 ± 0.013
8 | HDF3CGF:EGFR | -0.039 ± 0.047 | -0.047 ± 0.073 | -0.034 ± 0.086 | 0.0035 ± 0.013 | 0.0175 ± 0.025 | 0.0205 ± 0.054 | -0.004 ± 0.041 | -0.0155 ± 0.025 | 0.012 ± 0.0057 | 0.033 | 0.005 ± 0.041 | -0.102 ± 0.024 | -0.115 ± 0.0021 | -0.001 ± 0.0057 | 0.0145 ± 0.0021 | 0.0245 ± 0.035 | -0.0215 ± 0.035 | -0.0145 ± 0.022 | 0.0055 ± 0.019
9 | HDF3CGF:M-CSF | -0.0255 ± 0.0064 | -0.031 ± 0.061 | -0.027 ± 0.069 | -0.0025 ± 0.0078 | -0.01 ± 0.0071 | 0.01 ± 0.0099 | 0.0025 ± 0.012 | 0.0055 ± 0.005 | 0.0035 ± 0.00071 | -0.0335 ± 0.042 | -0.0085 ± 0.053 | -0.101 ± 0.013 | -0.27 ± 0.0071 | -0.007 ± 0.014 | -0.003 ± 0.0028 | -0.0045 ± 0.00071 | 0.0065 ± 0.067 | -0.042 ± 0.027 | -0.0295 ± 0.042
10 | HDF3CGF:MMP-1 | -0.012 ± 0.0014 | 0.0015 ± 0.0035 | 0.013 ± 0.0014 | -0.0055 ± 0.0092 | -0.0115 ± 0.023 | -0.006 | 0.0135 ± 0.0064 | 0.0095 ± 0.0035 | 0.021 ± 0.027 | -0.0035 ± 0.005 | 0.0165 ± 0.012 | 0.043 ± 0.013 | 0.0065 ± 0.026 | -0.004 ± 0.013 | -0.003 ± 0.014 | -0.0025 ± 0.018 | -0.0065 ± 0.0064 | 0.0045 ± 0.013 | 0.0035 ± 0.015
11 | HDF3CGF:PAI-I | 0.008 ± 0.033 | -0.018 ± 0.0042 | -0.003 ± 0.023 | -0.013 ± 0.023 | -0.017 ± 0.017 | -0.0205 ± 0.0092 | -0.0025 ± 0.029 | 0.007 ± 0.054 | 0.018 ± 0.052 | 0 ± 0.013 | -0.0065 ± 0.012 | -0.0695 ± 0.061 | -0.211 ± 0.08 | 0.0055 ± 0.015 | 0.0135 ± 0.029 | 0.0295 ± 0.012 | -0.07 ± 0.1 | -0.005 ± 0.12 | -0.002 ± 0.04
12 | HDF3CGF:Proliferation 72hr | -0.041 ± 0.045 | 0.004 ± 0.035 | -0.016 ± 0.041 | -0.001 ± 0.031 | 0.0325 ± 0.044 | -0.053 ± 0.031 | 0.01 ± 0.054 | 0.0145 ± 0.0021 | 0.0285 ± 0.029 | 0.103 ± 0.028 | -0.046 ± 0.028 | -0.391 ± 0.079 | -0.746 ± 0.094 | 0.0035 ± 0.0035 | 0.008 ± 0.016 | 0.012 ± 0.035 | 0.006 ± 0.0042 | -0.01 ± 0.045 | 0.0325 ± 0.0078
13 | HDF3CGF:SRB | -0.0315 ± 0.0078 | 0.0335 ± 0.046 | 0.0315 ± 0.12 | -0.031 ± 0.0057 | 0.0405 ± 0.033 | -0.0505 ± 0.016 | 0.0125 ± 0.0064 | -0.007 ± 0.0028 | 0.002 ± 0.0071 | 0.025 ± 0.051 | 0.069 ± 0.14 | -0.127 ± 0.011 | -0.153 ± 0.084 | 0.009 ± 0.041 | -0.0035 ± 0.015 | -0.0125 ± 0.012 | -0.003 ± 0.0085 | -0.0175 ± 0.011 | -0.0335 ± 0.032
14 | HDF3CGF:TIMP-1 | -0.0265 ± 0.077 | -0.0335 ± 0.036 | -0.0405 ± 0.036 | -0.007 ± 0.025 | -0.0015 ± 0.016 | 0.0065 ± 0.023 | -0.0165 ± 0.00071 | -0.0085 ± 0.033 | 0.0085 ± 0.013 | 0.014 ± 0.016 | 0.008 ± 0.017 | 0.005 ± 0.081 | -0.0605 ± 0.074 | -0.037 ± 0.0099 | -0.009 ± 0.0028 | 0.041 ± 0.051 | -0.0195 ± 0.016 | -0.0045 ± 0.0064 | 0.038 ± 0.025
15 | HDF3CGF:TIMP-2 | -0.03 ± 0.059 | -0.013 ± 0.052 | -0.0245 ± 0.016 | -0.002 ± 0.016 | 0.002 ± 0.0071 | -0.011 ± 0.021 | -0.0015 ± 0.0035 | -0.0055 ± 0.015 | -0.0115 ± 0.036 | 0.025 ± 0.013 | -0.0115 ± 0.012 | 0.136 ± 0.0057 | 0.108 ± 0.0071 | -0.0145 ± 0.035 | -0.0075 ± 0.011 | 0.001 ± 0.027 | -0.0495 ± 0.028 | -0.0155 ± 0.05 | -0.037 ± 0.073
